Test results: ChEMBL document CHEMBL3045849, “Mode of inhibition of acetylcholinesterase by monoterpenoids and implications for pest control” (Ind Crops Prod, 2010)
pKi: −log10 of the molar value. Active and inactive are the calls of the source. No cut-off for these calls is given here.

Legend:
[1] = target: Acetylcholinesterase (Electrophorus electricus) (UniProt O42275); assay: Mixed type inhibition of Electrophorus electricus (electric eel) acetylcholinesteraseAChE using acetylthiocholine iodide substrate by Ellman method based colorimetry
Sequence of Acetylcholinesterase (Electrophorus electricus) (O42275 24-633 limits assumed): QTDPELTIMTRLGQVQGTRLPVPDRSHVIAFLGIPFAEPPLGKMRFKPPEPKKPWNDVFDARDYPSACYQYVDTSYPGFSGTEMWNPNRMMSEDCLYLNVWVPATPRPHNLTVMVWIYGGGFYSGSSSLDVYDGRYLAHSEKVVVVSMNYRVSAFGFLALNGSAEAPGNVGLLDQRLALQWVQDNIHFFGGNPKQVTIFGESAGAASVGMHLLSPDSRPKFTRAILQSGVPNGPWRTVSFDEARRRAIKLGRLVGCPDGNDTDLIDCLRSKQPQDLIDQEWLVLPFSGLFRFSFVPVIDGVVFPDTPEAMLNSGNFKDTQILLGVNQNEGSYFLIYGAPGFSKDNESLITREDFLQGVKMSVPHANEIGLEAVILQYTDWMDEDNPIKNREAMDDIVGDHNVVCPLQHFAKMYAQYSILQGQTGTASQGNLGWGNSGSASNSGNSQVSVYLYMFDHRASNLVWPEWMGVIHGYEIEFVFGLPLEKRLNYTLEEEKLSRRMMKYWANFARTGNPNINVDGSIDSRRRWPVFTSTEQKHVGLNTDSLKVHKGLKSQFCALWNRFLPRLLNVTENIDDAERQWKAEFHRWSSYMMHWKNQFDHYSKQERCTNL

[2] = target: Acetylcholinesterase (Electrophorus electricus) (UniProt O42275); assay: Reversible inhibition of Electrophorus electricus (electric eel)acetylcholinesterase (AChE) using acetylthiocholine iodide substrate by Ellman method based colorimetry
[3] = target: Acetylcholinesterase (Electrophorus electricus, UniProt O42275); assay: Inhibition of Electrophorus electricus (electric eel) acetylcholinesterase (AChE) using acetylthiocholine iodide substrate by Ellman method based colorimetry; conditions: for pKi: read-out: Ki
Sequence of Acetylcholinesterase (O42275 whole entry): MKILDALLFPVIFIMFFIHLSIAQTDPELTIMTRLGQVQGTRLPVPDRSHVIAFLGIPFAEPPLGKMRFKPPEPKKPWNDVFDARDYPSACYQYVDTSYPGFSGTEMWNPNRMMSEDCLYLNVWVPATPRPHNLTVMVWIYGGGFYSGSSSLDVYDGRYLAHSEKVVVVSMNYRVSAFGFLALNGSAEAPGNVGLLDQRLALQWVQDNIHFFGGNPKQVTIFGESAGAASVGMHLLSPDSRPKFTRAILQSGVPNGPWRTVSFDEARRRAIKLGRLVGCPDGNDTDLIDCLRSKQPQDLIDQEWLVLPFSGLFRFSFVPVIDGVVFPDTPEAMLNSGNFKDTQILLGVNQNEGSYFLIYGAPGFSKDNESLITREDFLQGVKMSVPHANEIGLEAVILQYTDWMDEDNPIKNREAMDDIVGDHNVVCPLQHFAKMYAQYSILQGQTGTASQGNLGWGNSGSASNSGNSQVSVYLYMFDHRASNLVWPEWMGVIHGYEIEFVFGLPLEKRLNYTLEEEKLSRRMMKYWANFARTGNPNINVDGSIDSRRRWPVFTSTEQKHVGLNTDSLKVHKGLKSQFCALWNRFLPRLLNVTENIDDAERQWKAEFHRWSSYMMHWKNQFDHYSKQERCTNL

[4] = target: Acetylcholinesterase (Electrophorus electricus) (UniProt O42275); assay: Competitive inhibition of Electrophorus electricus (electric eel) acetylcholinesterase (AChE) using acetylthiocholine iodide substrate by Ellman method based colorimetry
[5] = target: Acetylcholinesterase (Electrophorus electricus) (UniProt O42275); assay: Inhibition of Electrophorus electricus (electric eel) acetylcholinesterase (AChE) at 100 mM using 10 mM acetylthiocholine iodide substrate after 15 min by Ellman method based colorimetry
[6] = target: Acetylcholinesterase (Electrophorus electricus) (UniProt O42275); assay: Inhibition of Electrophorus electricus (electric eel) acetylcholinesterase (AChE) at 50 mM using 5 mM acetylthiocholine iodide substrate after 15 min by Ellman method based colorimetry
[7] = target: Acetylcholinesterase (Electrophorus electricus) (UniProt O42275); assay: Inhibition of Electrophorus electricus (electric eel) acetylcholinesterase (AChE) at 10 mM using 2 mM acetylthiocholine iodide substrate after 15 min by Ellman method based colorimetry
[8] = target: Acetylcholinesterase (Electrophorus electricus) (UniProt O42275); assay: Inhibition of Electrophorus electricus (electric eel) acetylcholinesterase (AChE) at 1 mM using 1 mM acetylthiocholine iodide substrate after 15 min by Ellman method based colorimetry

Row | Structure (SMILES) | inhibition [1] | inhibition [2] | pKi [3] | Ki [3] | inhibition [4] | inhibition [5] | inhibition [6] | inhibition [7] | inhibition [8]
1 | C=C(C)[C@H]1CC=C(C)C(=O)C1 [(S)(+)CARVONE] | Active | Active | 3.52 | – | – | – | – | – | –
2 | C/C=C/c1ccc(OC)cc1 [ANETHOLE] | – | Active | – | Not Active | – | – | – | – | –
3 | CC12CCC(CC1=O)C2(C)C (configuration not stated) [CAMPHOR] | Active | Active | 4.30 | – | – | – | – | – | –
4 | C=CCc1ccc(OC)cc1 [ESTRAGOLE] | Active | Active | 3.82 | – | – | – | – | – | –
5 | CC12CCC(C1)C(C)(C)C2=O (configuration not stated) [FENCHONE] | – | Active | 3.40 | – | Active | 90.7% | 84.1% | 79.8% | 53.8%
6 | CC1=CCC(C(C)C)=CC1 [GAMMA-TERPINENE] | – | Active | 3.70 | – | Active | – | – | – | –
7 | CC(C)=CCC/C(C)=C/CO [GERANIOL] | – | Active | 4.00 | – | Active | – | – | – | –
8 | C=CC(C)(O)CCC=C(C)C (configuration not stated) [LINALOOL] | – | Active | 3.52 | – | Active | – | – | – | –
